Experimental findings from US20220402925A1, “COMPOUNDS AND METHODS FOR THE TREATMENT OF CYSTIC FIBROSIS” (Flatley Discovery Lab, LLC, priority 2019, published 2022) are described below.

The target in this experiment is T1, F508del CFTR (Homo sapiens, UniProt P13569, DEL508-508).
T1 construct: Primary CF airway epithelial cells were obtained from the UNC Cystic Fibrosis Tissue Procurement and Cell Culture Core; host or cells: primary CF airway epithelial cells
T1 sequence (P13569 with tags, fused parts or gaps DEL508-508): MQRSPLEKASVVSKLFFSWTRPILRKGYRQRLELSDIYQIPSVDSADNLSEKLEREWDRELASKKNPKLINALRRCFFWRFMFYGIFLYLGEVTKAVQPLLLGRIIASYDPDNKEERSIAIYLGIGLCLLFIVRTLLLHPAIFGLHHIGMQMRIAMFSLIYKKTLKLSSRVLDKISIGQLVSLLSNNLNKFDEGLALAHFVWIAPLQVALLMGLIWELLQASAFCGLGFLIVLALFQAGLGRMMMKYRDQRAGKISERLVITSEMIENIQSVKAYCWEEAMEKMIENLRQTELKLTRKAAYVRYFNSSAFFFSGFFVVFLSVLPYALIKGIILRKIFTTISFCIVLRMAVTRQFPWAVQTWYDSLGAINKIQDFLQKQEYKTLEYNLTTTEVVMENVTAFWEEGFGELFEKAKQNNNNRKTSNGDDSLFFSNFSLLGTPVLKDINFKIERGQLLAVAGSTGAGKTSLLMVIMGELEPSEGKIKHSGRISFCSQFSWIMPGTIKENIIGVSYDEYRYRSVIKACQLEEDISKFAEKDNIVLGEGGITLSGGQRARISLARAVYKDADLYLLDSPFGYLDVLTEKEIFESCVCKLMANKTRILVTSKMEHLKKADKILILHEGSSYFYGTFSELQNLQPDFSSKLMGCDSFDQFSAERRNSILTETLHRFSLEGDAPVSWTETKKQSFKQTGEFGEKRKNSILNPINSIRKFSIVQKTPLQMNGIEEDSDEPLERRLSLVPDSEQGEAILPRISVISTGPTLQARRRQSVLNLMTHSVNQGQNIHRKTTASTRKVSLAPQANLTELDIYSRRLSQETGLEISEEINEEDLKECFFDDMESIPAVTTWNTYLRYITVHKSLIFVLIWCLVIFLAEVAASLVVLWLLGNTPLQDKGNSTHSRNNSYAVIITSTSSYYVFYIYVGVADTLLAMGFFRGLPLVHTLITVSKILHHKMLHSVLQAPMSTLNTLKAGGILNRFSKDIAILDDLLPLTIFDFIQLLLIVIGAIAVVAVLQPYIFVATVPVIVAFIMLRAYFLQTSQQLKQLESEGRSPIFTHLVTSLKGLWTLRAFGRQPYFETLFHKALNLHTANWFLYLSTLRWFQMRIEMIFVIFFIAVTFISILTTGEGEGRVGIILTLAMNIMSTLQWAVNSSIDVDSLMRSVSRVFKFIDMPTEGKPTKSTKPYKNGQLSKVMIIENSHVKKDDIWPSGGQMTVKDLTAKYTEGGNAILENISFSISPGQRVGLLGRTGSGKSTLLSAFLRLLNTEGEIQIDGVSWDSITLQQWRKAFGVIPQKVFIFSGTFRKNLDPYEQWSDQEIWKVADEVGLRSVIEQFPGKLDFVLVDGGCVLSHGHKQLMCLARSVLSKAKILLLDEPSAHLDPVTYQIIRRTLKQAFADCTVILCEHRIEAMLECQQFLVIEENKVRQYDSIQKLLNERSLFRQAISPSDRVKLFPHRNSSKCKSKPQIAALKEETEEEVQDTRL
Kind of experiment: Equivalent current assay in primary CF airway epithelial cells (Corrector Activity, NAUC normalized to 3 μM VX809). In kind it is cell-based. The settings on record: NAUC as % of positive control (VX-809). The procedure, abridged: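 Readout is NAUC: current area from forskolin/potentiator addition until CFTR-172, minus vehicle, relative to 3 μM VX809 (=1.0). Cells were primary CF epithelia at air-liquid interface ≥4 weeks, given basolateral compound for 24 h at 37° C; median of n≥4 replicates, sigmoid fit with nH fixed at 1.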
Regarding `CCN(C(=O)Cn1nc(-c2cc(C#N)cc(C(F)(F)F)c2)c2[nH]cnc2c1=O)c1ccc2c(c1)OC(F)(F)O2` [Example 281], the “Corr Activity (NAUC)” value is “+++ (NAUC>70% of positive control)”. In the case of `CCN(C(=O)Cn1nc(-c2cc(Cl)cc(CO)c2)c2[nH]cnc2c1=O)c1ccc2c(c1)OC(F)(F)O2` [Example 282] it was “+ (NAUC<40% of positive control)”; in that of `CCN(C(=O)Cn1nc(-c2cc(O)cc(OC(F)(F)F)c2)c2[nH]cnc2c1=O)c1ccc2c(c1)OC(F)(F)O2` [Example 284], “+ (NAUC<40% of positive control)”; in that of `CCN(C(=O)Cn1nc(-c2cc(C#N)cc(OC(F)(F)F)c2)c2[nH]cnc2c1=O)c1ccc2c(c1)OC(F)(F)O2` [Example 285], “+++ (NAUC>70% of positive control)”.

For `CCN(C(=O)Cn1nc(-c2cc(C#N)cc(OC)c2)c2[nH]cnc2c1=O)c1ccc2c(c1)OC(F)(F)O2` [Example 286], the “Corr Activity (NAUC)” value is “+++ (NAUC>70% of positive control)”. Turning to `CCN(C(=O)Cn1nc(-c2ccc3cc(OC)ccc3c2)c2[nH]cnc2c1=O)c1ccc2c(c1)OC(F)(F)O2` [Example 289], the “Corr Activity (NAUC)” value was “+++ (NAUC>70% of positive control)”. As to `CCN(C(=O)Cn1nc(-c2ccc3c(ccn3C)c2)c2[nH]cnc2c1=O)c1ccc2c(c1)OC(F)(F)O2` [Example 290], the “Corr Activity (NAUC)” value was “+ (NAUC<40% of positive control)”.

As for `CCN(C(=O)Cn1nc(-c2ccc3ccccc3c2)c2[nH]cnc2c1=O)c1ccc2c(c1)OC(F)(F)O2` [Example 292], the “Corr Activity (NAUC)” value is “+ (NAUC<40% of positive control)”. Consider `CCN(C(=O)Cn1nc(-c2ccc3c(c2)C(C)(C)c2ccccc2-3)c2[nH]cnc2c1=O)c1ccc2c(c1)OC(F)(F)O2` [Example 293], for which the “Corr Activity (NAUC)” value is reported as “+ (NAUC<40% of positive control)”. For the molecule `CCN(C(=O)Cn1nc(-c2ccc3c(c2)OCCO3)c2[nH]cnc2c1=O)c1ccc2c(c1)OC(F)(F)O2` [Example 294], the “Corr Activity (NAUC)” value is “+ (NAUC<40% of positive control)”.

Consider `CCN(C(=O)Cn1nc(-c2ccc3[nH]c4ccccc4c3c2)c2[nH]cnc2c1=O)c1ccc2c(c1)OC(F)(F)O2` [Example 295], for which the “Corr Activity (NAUC)” value is recorded as “+ (NAUC<40% of positive control)”. On to `CCN(C(=O)Cn1nc(-c2ccc3c(ccn3Cc3ccccc3)c2)c2[nH]cnc2c1=O)c1ccc2c(c1)OC(F)(F)O2` [Example 296], for which the “Corr Activity (NAUC)” value is on record as “+ (NAUC<40% of positive control)”.

Regarding `CCN(C(=O)Cn1nc(-c2ccc3ocnc3c2)c2[nH]cnc2c1=O)c1ccc2c(c1)OC(F)(F)O2` [Example 303], the “Corr Activity (NAUC)” value is recorded as “+ (NAUC<40% of positive control)”. As for `CCN(C(=O)Cn1nc(-c2ccc3c(cnn3C(C)C)c2)c2[nH]cnc2c1=O)c1ccc2c(c1)OC(F)(F)O2` [Example 310], the “Corr Activity (NAUC)” value is “+ (NAUC<40% of positive control)”.

Regarding `CCN(C(=O)Cn1nc(-c2ccc3c(c2)OC(F)(F)O3)c2[nH]cnc2c1=O)c1ccc2c(c1)OC(F)(F)O2` [Example 311], the “Corr Activity (NAUC)” value is reported as “+ (NAUC<40% of positive control)”. As for `CCN(C(=O)Cn1nc(-c2ccc3c(c2)ncn3-c2ccccc2)c2[nH]cnc2c1=O)c1ccc2c(c1)OC(F)(F)O2` [Example 313], the “Corr Activity (NAUC)” value was “++ (NAUC 70-40% of positive control)”. Take `CCN(C(=O)Cn1nc(-c2ccc(C(=O)OC)c(Cl)c2)c2[nH]cnc2c1=O)c1ccc2c(c1)OC(F)(F)O2` [Example 316]: the “Corr Activity (NAUC)” value was “++ (NAUC 70-40% of positive control)”. On to `CCN(C(=O)Cn1nc(-c2ccc(CC#N)c(F)c2)c2[nH]cnc2c1=O)c1ccc2c(c1)OC(F)(F)O2` [Example 317], for which the “Corr Activity (NAUC)” value is “+ (NAUC<40% of positive control)”.

Take `CCN(C(=O)Cn1nc(-c2ccc(-c3ccccc3)c(F)c2)c2[nH]cnc2c1=O)c1ccc2c(c1)OC(F)(F)O2` [Example 319]: the “Corr Activity (NAUC)” value was “+ (NAUC<40% of positive control)”. To `CCN(C(=O)Cn1nc(-c2ccc(Cl)c(Cl)c2)c2[nH]cnc2c1=O)c1ccc2c(c1)OC(F)(F)O2` [Example 322] belongs “+++ (NAUC>70% of positive control)”. For the molecule `CCN(C(=O)Cn1nc(-c2ccc(Cl)c(C#N)c2)c2[nH]cnc2c1=O)c1ccc2c(c1)OC(F)(F)O2` [Example 325], the “Corr Activity (NAUC)” value was “+++ (NAUC>70% of positive control)”.

In the case of `CCN(C(=O)Cn1nc(-c2ccc(OC(C)C)c(Cl)c2)c2[nH]cnc2c1=O)c1ccc2c(c1)OC(F)(F)O2` [Example 326], the “Corr Activity (NAUC)” value is reported as “+++ (NAUC>70% of positive control)”. In the case of `CCN(C(=O)Cn1nc(-c2ccc(O)c(Cl)c2)c2[nH]cnc2c1=O)c1ccc2c(c1)OC(F)(F)O2` [Example 327], the “Corr Activity (NAUC)” value is recorded as “+ (NAUC<40% of positive control)”. Consider `CCN(C(=O)Cn1nc(-c2ccc(C(F)(F)F)c(Cl)c2)c2[nH]cnc2c1=O)c1ccc2c(c1)OC(F)(F)O2` [Example 328], for which the “Corr Activity (NAUC)” value is recorded as “+ (NAUC<40% of positive control)”. For `CCN(C(=O)Cn1nc(-c2ccc(Cl)c(OC)c2)c2[nH]cnc2c1=O)c1ccc2c(c1)OC(F)(F)O2` [Example 329], the “Corr Activity (NAUC)” value is listed as “+ (NAUC<40% of positive control)”. In the case of `CCN(C(=O)Cn1nc(-c2ccc(C(=O)NCc3ccccc3)c(Cl)c2)c2[nH]cnc2c1=O)c1ccc2c(c1)OC(F)(F)O2` [Example 330] it was “+ (NAUC<40% of positive control)”; in that of `CCN(C(=O)Cn1nc(-c2ccc(C#N)c(Cl)c2)c2[nH]cnc2c1=O)c1ccc2c(c1)OC(F)(F)O2` [Example 336], “++ (NAUC 70-40% of positive control)”; in that of `CCN(C(=O)Cn1nc(-c2ccc(C)c(CO)c2)c2[nH]cnc2c1=O)c1ccc2c(c1)OC(F)(F)O2` [Example 337], “+ (NAUC<40% of positive control)”. In the case of `CCN(C(=O)Cn1nc(-c2ccc(OC)c(C(F)(F)F)c2)c2[nH]cnc2c1=O)c1ccc2c(c1)OC(F)(F)O2` [Example 338], the “Corr Activity (NAUC)” value is “++ (NAUC 70-40% of positive control)”.

As for `CCN(C(=O)Cn1nc(-c2ccc(OCC(F)(F)F)c(F)c2)c2[nH]cnc2c1=O)c1ccc2c(c1)OC(F)(F)O2` [Example 339], the “Corr Activity (NAUC)” value is recorded as “++ (NAUC 70-40% of positive control)”. For `CCN(C(=O)Cn1nc(-c2ccc(C(F)(F)F)c(C(F)(F)F)c2)c2[nH]cnc2c1=O)c1ccc2c(c1)OC(F)(F)O2` [Example 345], the “Corr Activity (NAUC)” value was “+ (NAUC<40% of positive control)”. On to `CCN(C(=O)Cn1nc(-c2ccc(OC)c(C#N)c2)c2[nH]cnc2c1=O)c1ccc2c(c1)OC(F)(F)O2` [Example 346], for which the “Corr Activity (NAUC)” value is on record as “+++ (NAUC>70% of positive control)”.

With `CCN(C(=O)Cn1nc(-c2ccc(OCC3CC3)c(Cl)c2)c2[nH]cnc2c1=O)c1ccc2c(c1)OC(F)(F)O2` [Example 347], the “Corr Activity (NAUC)” value is recorded as “+++ (NAUC>70% of positive control)”. To `CCN(C(=O)Cn1nc(-c2ccc(OC)c(S(=O)(=O)N3CCCC3)c2)c2[nH]cnc2c1=O)c1ccc2c(c1)OC(F)(F)O2` [Example 350] belongs “+ (NAUC<40% of positive control)”; to `CCN(C(=O)Cn1nc(-c2ccc(C#N)c(C(F)(F)F)c2)c2[nH]cnc2c1=O)c1ccc2c(c1)OC(F)(F)O2` [Example 351], “+ (NAUC<40% of positive control)”; to `CCN(C(=O)Cn1nc(-c2ccc(N3CCCC3)c(C#N)c2)c2[nH]cnc2c1=O)c1ccc2c(c1)OC(F)(F)O2` [Example 352], “+++ (NAUC>70% of positive control)”.

For `CCN(C(=O)Cn1nc(-c2ccc(S(=O)(=O)NC(C)(C)C)c(C)c2)c2[nH]cnc2c1=O)c1ccc2c(c1)OC(F)(F)O2` [Example 355], the “Corr Activity (NAUC)” value is on record as “+ (NAUC<40% of positive control)”. To `CCN(C(=O)Cn1nc(-c2ccc(CC#N)c(OC)c2)c2[nH]cnc2c1=O)c1ccc2c(c1)OC(F)(F)O2` [Example 357] belongs “+ (NAUC<40% of positive control)”; to `CCN(C(=O)Cn1nc(-c2ccc(CS(C)(=O)=O)c(Cl)c2)c2[nH]cnc2c1=O)c1ccc2c(c1)OC(F)(F)O2` [Example 363], “+ (NAUC<40% of positive control)”. To `CCN(C(=O)Cn1nc(-c2ccc(OC(F)(F)F)c(C#N)c2)c2[nH]cnc2c1=O)c1ccc2c(c1)OC(F)(F)O2` [Example 365] belongs “+++ (NAUC>70% of positive control)”; to `N#Cc1cc(F)cc(-c2nn(CC(=O)N(c3ccc4c(c3)OC(F)(F)O4)C3CC3)c(=O)c3nc[nH]c23)c1` [Example 368], “+++ (NAUC>70% of positive control)”; to `N#Cc1cc(Cl)cc(-c2nn(CC(=O)N(c3ccc4c(c3)OC(F)(F)O4)C3CC3)c(=O)c3nc[nH]c23)c1` [Example 369], “+++ (NAUC>70% of positive control)”. Consider `O=C(Cn1nc(-c2cccc(F)c2)c2[nH]cnc2c1=O)N(c1ccc2c(c1)OC(F)(F)O2)C1CC1` [Example 370], for which the “Corr Activity (NAUC)” value is recorded as “+ (NAUC<40% of positive control)”. To `O=C(Cn1nc(-c2cccc(Cl)c2)c2[nH]cnc2c1=O)N(c1ccc2c(c1)OC(F)(F)O2)C1CC1` [Example 371] belongs “++ (NAUC 70-40% of positive control)”.

In the case of `N#Cc1cccc(-c2nn(CC(=O)N(c3ccc4c(c3)OC(F)(F)O4)C3CC3)c(=O)c3nc[nH]c23)c1` [Example 372], the “Corr Activity (NAUC)” value is “+++ (NAUC>70% of positive control)”.

With `O=C(Cn1nc(-c2cccc(F)c2)c2[nH]cnc2c1=O)N1CCCc2c1ccc1c2OC(F)(F)O1` [Example 373], the “Corr Activity (NAUC)” value was “+++ (NAUC>70% of positive control)”. For `O=C(Cn1nc(-c2cccc(Cl)c2)c2[nH]cnc2c1=O)N1CCCc2c1ccc1c2OC(F)(F)O1` [Example 374], the “Corr Activity (NAUC)” value is “+++ (NAUC>70% of positive control)”. To `N#Cc1cccc(-c2nn(CC(=O)N3CCCc4c3ccc3c4OC(F)(F)O3)c(=O)c3nc[nH]c23)c1` [Example 375] belongs “+++ (NAUC>70% of positive control)”.
